In ChEMBL document CHEMBL4387725, “In vitro inhibitory effects of cirsiliol on IL-6-induced STAT3 activation through anti-inflammatory activity” (Bioorg Med Chem Lett, 2019):
Calls of active or inactive are those of the source. No cut-off for these calls is given here.

Key:
Hep 3B2 [1] = assay: Inhibition of IL-6-induced ICAM1 gene expression in human Hep3B cells pre-incubated for 1 hr before IL-6 stimulation for 6 hrs by RT-PCR method; assay type: functional, cell-based
[2] = biological target: Signal transducer and activator of transcription 3 (Homo sapiens) (UniProt P40763); assay: Inhibition of IL-6-induced pSTAT3 nuclear translocation in human Hep3B cells at 10 and 20 uM pre-incubated for 1 hr before IL-6 stimulation for 30 mins by DAPI staining based immunofluorescence microscopy; assay type: cell-based
Chain of Signal transducer and activator of transcription 3 (Homo sapiens) (P40763 whole entry): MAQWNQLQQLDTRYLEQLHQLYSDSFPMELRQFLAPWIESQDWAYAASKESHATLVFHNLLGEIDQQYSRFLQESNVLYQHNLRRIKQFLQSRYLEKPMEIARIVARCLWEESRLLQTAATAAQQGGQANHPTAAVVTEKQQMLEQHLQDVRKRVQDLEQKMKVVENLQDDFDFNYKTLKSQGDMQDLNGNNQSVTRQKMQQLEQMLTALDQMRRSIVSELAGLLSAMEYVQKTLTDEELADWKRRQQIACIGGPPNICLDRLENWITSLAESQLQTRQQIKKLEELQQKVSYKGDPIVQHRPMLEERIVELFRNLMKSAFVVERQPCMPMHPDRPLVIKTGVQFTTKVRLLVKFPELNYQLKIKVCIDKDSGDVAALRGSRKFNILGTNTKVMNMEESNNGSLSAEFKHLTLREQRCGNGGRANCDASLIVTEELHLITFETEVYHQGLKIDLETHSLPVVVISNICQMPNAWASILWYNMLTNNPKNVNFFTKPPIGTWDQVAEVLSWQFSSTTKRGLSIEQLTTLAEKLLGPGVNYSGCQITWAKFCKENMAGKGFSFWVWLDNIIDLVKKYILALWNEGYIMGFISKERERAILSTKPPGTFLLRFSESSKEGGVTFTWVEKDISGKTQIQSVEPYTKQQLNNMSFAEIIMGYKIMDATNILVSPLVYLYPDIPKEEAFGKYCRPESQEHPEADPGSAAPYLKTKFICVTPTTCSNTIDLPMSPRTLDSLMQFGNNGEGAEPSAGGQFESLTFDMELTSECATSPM

[3] = biological target: Signal transducer and activator of transcription 3 (Homo sapiens) (UniProt P40763); assay: Inhibition of IL6-induced STAT3 phosphorylation in human Hep3B cells incubated for 12 hrs in presence of IL6 by luciferase reporter gene assay; assay type: cell-based
Homo sapiens [4] = species: Homo sapiens; assay: Inhibition of IL-6 binding to human recombinant soluble IL-6R incubated for 2 hrs by solid phase ligand binding assay
Hep 3B2 [5] = assay: Cytotoxicity against human Hep3B cells assessed as cell viability at 1 to 20 uM incubated for 24 hrs by MTT assay; assay type: cell-based; conditions: hep 3b2, 24 h
Hep 3B2 [6] = assay: Inhibition of IL-6-induced IL-1beta gene expression in human Hep3B cells pre-incubated for 1 hr before IL-6 stimulation for 6 hrs by RT-PCR method; assay type: functional, cell-based
[7] = biological target: Tyrosine-protein kinase JAK2 (Homo sapiens) (UniProt O60674); assay: Inhibition of IL-6-induced JAK2 phosphorylation at Tyr1007/1008 residues in human U266 cells at 10 and 20 uM pre-incubated for 1 hr before IL-6 stimulation for 10 to 15 mins by Western blot analysis; assay type: cell-based
Chain of Tyrosine-protein kinase JAK2 (Homo sapiens) (O60674 whole entry): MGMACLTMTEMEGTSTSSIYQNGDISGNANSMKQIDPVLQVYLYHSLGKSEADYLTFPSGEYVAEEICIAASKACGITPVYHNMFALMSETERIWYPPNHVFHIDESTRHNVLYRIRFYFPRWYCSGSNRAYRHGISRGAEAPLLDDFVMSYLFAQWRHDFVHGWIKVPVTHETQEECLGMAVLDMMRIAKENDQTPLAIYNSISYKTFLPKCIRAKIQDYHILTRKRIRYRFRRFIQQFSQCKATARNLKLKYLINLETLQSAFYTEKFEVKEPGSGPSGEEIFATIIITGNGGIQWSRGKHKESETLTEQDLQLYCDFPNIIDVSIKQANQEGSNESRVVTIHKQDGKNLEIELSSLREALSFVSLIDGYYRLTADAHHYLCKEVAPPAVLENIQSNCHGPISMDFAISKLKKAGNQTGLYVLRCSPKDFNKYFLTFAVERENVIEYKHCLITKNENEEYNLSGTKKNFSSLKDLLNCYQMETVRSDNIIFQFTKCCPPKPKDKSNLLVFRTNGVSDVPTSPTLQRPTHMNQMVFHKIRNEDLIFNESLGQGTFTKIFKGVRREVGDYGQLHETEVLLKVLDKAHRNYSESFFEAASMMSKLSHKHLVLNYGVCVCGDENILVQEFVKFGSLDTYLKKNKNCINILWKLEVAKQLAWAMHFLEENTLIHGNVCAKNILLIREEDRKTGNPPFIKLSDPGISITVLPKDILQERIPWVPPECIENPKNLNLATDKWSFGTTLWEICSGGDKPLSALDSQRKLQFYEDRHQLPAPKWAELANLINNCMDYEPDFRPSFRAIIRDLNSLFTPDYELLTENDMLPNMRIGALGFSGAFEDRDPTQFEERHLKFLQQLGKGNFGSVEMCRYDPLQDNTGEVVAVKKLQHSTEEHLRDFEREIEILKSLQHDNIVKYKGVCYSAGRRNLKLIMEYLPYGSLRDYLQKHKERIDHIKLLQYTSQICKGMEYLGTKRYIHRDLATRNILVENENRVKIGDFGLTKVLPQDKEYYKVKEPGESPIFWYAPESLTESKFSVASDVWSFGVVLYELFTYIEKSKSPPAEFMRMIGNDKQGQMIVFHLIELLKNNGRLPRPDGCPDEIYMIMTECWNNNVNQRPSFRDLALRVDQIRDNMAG

Homo sapiens [8] = species: Homo sapiens; assay: Inhibition of IL-6-induced ERK phosphorylation at Tyr202/204 residues in human U266 cells at 10 to 20 uM pre-incubated for 1 hr before IL-6 stimulation for 10 to 15 mins by Western blot analysis; assay type: cell-based
[9] = biological target: Signal transducer and activator of transcription 3 (Homo sapiens) (UniProt P40763); assay: Inhibition of IL-6-induced STAT3 phosphorylation at Tyr 705 residue in human U266 cells at 10 to 20 uM pre-incubated for 1 hr before IL-6 stimulation for 15 mins by Western blot analysis; assay type: cell-based
Hep 3B2 [10] = assay: Inhibition of IL-6-induced CRP gene expression in human Hep3B cells pre-incubated for 1 hr before IL-6 stimulation for 6 hrs by RT-PCR method; assay type: functional, cell-based
[11] = biological target: Signal transducer and activator of transcription 3 (Homo sapiens) (UniProt P40763); assay: Inhibition of IL-6-induced pSTAT3 nuclear translocation in human U266 cells at 20 uM pre-incubated for 1 hr before IL-6 stimulation for 30 mins by DAPI staining based immunofluorescence microscopy; assay type: cell-based
[12] = biological target: T1, Interleukin-6 receptor subunit beta (Homo sapiens) (UniProt P40189); assay: Inhibition of IL-6-induced gp130 phosphorylation in human U266 cells at 10 and 20 uM pre-incubated for 1 hr before IL-6 stimulation for 10 to 15 mins by Western blot analysis; assay type: cell-based
T1 sequence (whole entry): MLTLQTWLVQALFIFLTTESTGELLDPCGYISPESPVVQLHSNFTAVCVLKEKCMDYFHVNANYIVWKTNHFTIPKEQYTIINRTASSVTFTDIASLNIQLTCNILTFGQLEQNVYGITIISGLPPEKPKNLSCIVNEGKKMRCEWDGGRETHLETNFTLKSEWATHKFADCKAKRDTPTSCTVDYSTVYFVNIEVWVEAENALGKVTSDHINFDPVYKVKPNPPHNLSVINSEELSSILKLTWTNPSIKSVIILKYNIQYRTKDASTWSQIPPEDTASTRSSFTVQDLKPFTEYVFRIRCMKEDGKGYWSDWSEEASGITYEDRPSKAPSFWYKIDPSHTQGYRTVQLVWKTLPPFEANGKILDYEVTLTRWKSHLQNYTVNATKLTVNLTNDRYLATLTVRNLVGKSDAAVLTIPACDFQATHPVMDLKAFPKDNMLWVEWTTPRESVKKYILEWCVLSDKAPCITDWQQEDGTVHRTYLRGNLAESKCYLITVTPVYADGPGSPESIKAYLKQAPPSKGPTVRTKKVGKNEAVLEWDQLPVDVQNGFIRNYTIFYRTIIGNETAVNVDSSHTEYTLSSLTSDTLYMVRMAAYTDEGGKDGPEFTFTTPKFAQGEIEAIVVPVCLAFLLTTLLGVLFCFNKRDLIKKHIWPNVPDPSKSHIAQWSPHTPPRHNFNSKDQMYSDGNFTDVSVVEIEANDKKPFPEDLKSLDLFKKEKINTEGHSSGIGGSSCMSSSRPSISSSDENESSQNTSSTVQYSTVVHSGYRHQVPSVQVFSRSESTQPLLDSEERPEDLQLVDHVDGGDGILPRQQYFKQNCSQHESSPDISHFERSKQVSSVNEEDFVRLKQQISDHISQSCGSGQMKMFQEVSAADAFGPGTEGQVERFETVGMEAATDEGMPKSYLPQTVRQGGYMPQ

Hep 3B2 [13] = assay: Inhibition of IL-6-induced SOCS3 gene expression in human Hep3B cells pre-incubated for 1 hr before IL-6 stimulation for 6 hrs by RT-PCR method; assay type: functional, cell-based

inhibition [2]: Active
inhibition [3]: Dose-dependent effect
inhibition (Homo sapiens [4]): inactive
inhibition [7]: Dose-dependent effect
inhibition [9]: Active
inhibition [11]: Active
inhibition [12]: Dose-dependent effect
SMILES: COc1cc2oc(-c3ccc(O)c(O)c3)cc(=O)c2c(O)c1OC [CIRSILIOL]
inhibition (Hep 3B2 [1]): Dose-dependent effect
Activity (Hep 3B2 [5]): Non-Toxic
inhibition (Hep 3B2 [6]): Dose-dependent effect
inhibition (Homo sapiens [8]): Active
inhibition (Hep 3B2 [10]): Dose-dependent effect
inhibition (Hep 3B2 [13]): Dose-dependent effect
